Key:
corn = test: Test A pre-/postemergence herbicide test; assay type: in vivo, Zea mays
In short: (§1)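 Seeds sown in loam soil/sand blend received a preemergence directed soil spray of test chemical in non-phytotoxic solvent with surfactant; postemergence plants (2–10 cm, one- to two-leaf stage) were sprayed with the same formulation. After about 10 days in greenhouse, injury was rated visually versus untreated controls, 0 (no effect) to 100 (complete control).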

sedge, umbrella = test: Test B flooded paddy test; assay type: in vivo, Cyperus difformis; conditions: Flood, scale of 0 to 100 where 0 is no effect and 100 is complete control
In short: (§2)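 2-leaf plants; flood 3 cm over soil; compound into paddy water; depth held. Greenhouse 13–15 d. Visual rating vs controls, 0 (no effect) to 100 (complete control); dash = not tested.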

rice = test: Test B flooded paddy test; assay type: in vivo, Oryza sativa; conditions: Flood, scale of 0 to 100 where 0 is no effect and 100 is complete control
In short: as §2

morningglory = test: Test A pre-/postemergence herbicide test; assay type: in vivo, Ipomoea spp.
In short: as §1

pigweed = test: Test A pre-/postemergence herbicide test; assay type: in vivo, Amaranthus retroflexus
In short: as §1

giant foxtail = test: Test A pre-/postemergence herbicide test; assay type: in vivo, Setaria faberii
In short: as §1

velvetleaf = test: Test A pre-/postemergence herbicide test; assay type: in vivo, Abutilon theophrasti
In short: as §1

wheat = test: Test A pre-/postemergence herbicide test; assay type: in vivo, Triticum aestivum
In short: as §1

barnyardgrass [1] = test: Test B flooded paddy test; assay type: in vivo, Echinochloa crus-galli; conditions: Flood, scale of 0 to 100 where 0 is no effect and 100 is complete control
In short: as §2

barnyardgrass [2] = test: Test A pre-/postemergence herbicide test; assay type: in vivo, Echinochloa crus-galli
In short: as §1

crabgrass, large = test: Test A pre-/postemergence herbicide test; assay type: in vivo, Digitaria sanguinalis
In short: as §1

ducksalad = test: Test B flooded paddy test; assay type: in vivo, Heteranthera limosa; conditions: Flood, scale of 0 to 100 where 0 is no effect and 100 is complete control
In short: as §2

[3] = Postemergence, 125 g ai/ha, 0 to 100 scale, 0 no effect, 100 complete control
[4] = Postemergence, 500 g ai/ha, 0 to 100 scale (0 no effect, 100 complete control)
[5] = Preemergence, 125 g ai/ha, visual rating on 0 to 100 scale (0 no effect, 100 complete control)
[6] = preemergence, 500 g ai/ha, 0 to 100 scale
[7] = preemergence, 500 g ai/ha, 0 to 100 scale (0 no effect, 100 complete control)
[8] = Postemergence, 1000 g ai/ha, 0 to 100 scale (0 no effect, 100 complete control)
[9] = Preemergence, 1000 g ai/ha, visual rating on 0 to 100 scale (0 no effect, 100 complete control), approx. 10 days

O=C1NCC(c2ccc(Cl)nc2)C1C(=O)Nc1ccccc1C(F)(F)F (centres unmarked) [Compound 42]
30: Plant response rating, Pigweed (pigweed; [6]) | Plant response rating, Velvetleaf (velvetleaf; [3])
0: Plant response rating, Corn (corn; [3]) | Plant response rating, Corn (corn; [4]) | Corn plant response rating (corn; [5]) | Plant response rating, Corn (corn; [6]) | Plant response rating, Sedge, Umbrella (sedge, umbrella; 250 g ai/ha) | Plant response rating, Rice (rice; 250 g ai/ha) | Plant response rating, Morningglory (morningglory; [3]) | Plant response rating, Morningglory (morningglory; [4]) | Plant response rating, Pigweed (pigweed; [3]) | Plant response rating, Pigweed (pigweed; [4]) | Pigweed plant response rating (pigweed; [5]) | Plant response rating, Foxtail, Giant (giant foxtail; [3]) | Velvetleaf plant response rating (velvetleaf; [5]) | Plant response rating, Velvetleaf (velvetleaf; [6]) | Plant response rating, Wheat (wheat; [3]) | Plant response rating, Wheat (wheat; [4]) | Wheat plant response rating (wheat; [5]) | Plant response rating, Wheat (wheat; [6]) | Plant response rating, Barnyardgrass (barnyardgrass [1]; 250 g ai/ha) | Plant response rating, Barnyardgrass (barnyardgrass [2]; [3]) | Barnyardgrass plant response rating (barnyardgrass [2]; [5]) | Plant response rating, Crabgrass, Large (crabgrass, large; [3])
40: Plant response rating, Barnyardgrass (barnyardgrass [2]; [4])
90: Plant response rating, Crabgrass, Large (crabgrass, large; [6])
20: Plant response rating, Foxtail, Giant (giant foxtail; [4]) | Foxtail, Giant plant response rating (giant foxtail; [5])
50: Plant response rating, Velvetleaf (velvetleaf; [4])
70: Plant response rating, Crabgrass, Large (crabgrass, large; [4])
60: Plant response rating, Barnyardgrass (barnyardgrass [2]; [7]) | Plant response rating, Ducksalad (ducksalad; 250 g ai/ha)
80: Plant response rating, Foxtail, Giant (giant foxtail; [6]) | Crabgrass, Large plant response rating (crabgrass, large; [5])

O=C1NCC(c2ccc(F)c(F)c2)C1C(=O)Nc1cccc(Cl)c1F (racemic) [Compound 104]
70: Plant response rating, Foxtail, Giant (giant foxtail; [8]) | Plant response rating, Barnyardgrass (barnyardgrass [1]; 1000 g ai/ha)
90: Plant response rating, Foxtail, Giant (giant foxtail; [9]) | Plant response rating, Crabgrass, Large (crabgrass, large; [9])
95: Plant response rating, Ducksalad (ducksalad; 1000 g ai/ha)
80: Plant response rating, Barnyardgrass (barnyardgrass [2]; [8]) | Plant response rating, Barnyardgrass (barnyardgrass [2]; [9]) | Plant response rating, Crabgrass, Large (crabgrass, large; [8])
10: Plant response rating, Velvetleaf (velvetleaf; [8])
0: Plant response rating, Corn (corn; [8]) | Plant response rating, Sedge, Umbrella (sedge, umbrella; 1000 g ai/ha) | Plant response rating, Rice (rice; 1000 g ai/ha) | Plant response rating, Morningglory (morningglory; [8]) | Plant response rating, Morningglory (morningglory; [9]) | Plant response rating, Pigweed (pigweed; [8]) | Plant response rating, Pigweed (pigweed; [9]) | Plant response rating, Velvetleaf (velvetleaf; [9]) | Plant response rating, Wheat (wheat; [8])
20: Plant response rating, Corn (corn; [9]) | Plant response rating, Wheat (wheat; [9])

O=C1NCC(c2ccc(F)c(F)c2)C1C(=O)Nc1ccccc1 (racemic) [Compound 30]
80: Plant response rating, Foxtail, Giant (giant foxtail; [8]) | Plant response rating, Crabgrass, Large (crabgrass, large; [8])
90: Plant response rating, Foxtail, Giant (giant foxtail; [9]) | Plant response rating, Barnyardgrass (barnyardgrass [2]; [8]) | Plant response rating, Barnyardgrass (barnyardgrass [2]; [9]) | Plant response rating, Crabgrass, Large (crabgrass, large; [9])
0: Plant response rating, Corn (corn; [8]) | Plant response rating, Corn (corn; [9]) | Plant response rating, Sedge, Umbrella (sedge, umbrella; 250 g ai/ha) | Plant response rating, Rice (rice; 250 g ai/ha) | Plant response rating, Morningglory (morningglory; [8]) | Plant response rating, Morningglory (morningglory; [9]) | Plant response rating, Pigweed (pigweed; [8]) | Plant response rating, Pigweed (pigweed; [9]) | Plant response rating, Velvetleaf (velvetleaf; [8]) | Plant response rating, Velvetleaf (velvetleaf; [9]) | Plant response rating, Wheat (wheat; [8]) | Plant response rating, Wheat (wheat; [9]) | Plant response rating, Barnyardgrass (barnyardgrass [1]; 250 g ai/ha) | Plant response rating, Ducksalad (ducksalad; 250 g ai/ha)

O=C1NCC(c2ccc(F)c(F)c2)C1C(=O)Nc1ccc[nH]c1=O (racemic) [Compound 97]
70: Plant response rating, Ducksalad (ducksalad; 250 g ai/ha)
0: Plant response rating, Corn (corn; [3]) | Plant response rating, Corn (corn; [4]) | Corn plant response rating (corn; [5]) | Plant response rating, Corn (corn; [6]) | Plant response rating, Morningglory (morningglory; [3]) | Plant response rating, Morningglory (morningglory; [4]) | Morningglory plant response rating (morningglory; [5]) | Plant response rating, Morningglory (morningglory; [6]) | Plant response rating, Pigweed (pigweed; [3]) | Plant response rating, Pigweed (pigweed; [4]) | Pigweed plant response rating (pigweed; [5]) | Plant response rating, Pigweed (pigweed; [6]) | Plant response rating, Foxtail, Giant (giant foxtail; [3]) | Plant response rating, Foxtail, Giant (giant foxtail; [4]) | Foxtail, Giant plant response rating (giant foxtail; [5]) | Plant response rating, Foxtail, Giant (giant foxtail; [6]) | Plant response rating, Velvetleaf (velvetleaf; [3]) | Plant response rating, Velvetleaf (velvetleaf; [4]) | Velvetleaf plant response rating (velvetleaf; [5]) | Plant response rating, Velvetleaf (velvetleaf; [6]) | Plant response rating, Wheat (wheat; [3]) | Plant response rating, Wheat (wheat; [4]) | Wheat plant response rating (wheat; [5]) | Plant response rating, Wheat (wheat; [6]) | Plant response rating, Barnyardgrass (barnyardgrass [2]; [3]) | Plant response rating, Barnyardgrass (barnyardgrass [2]; [4]) | Barnyardgrass plant response rating (barnyardgrass [2]; [5]) | Plant response rating, Barnyardgrass (barnyardgrass [2]; [7]) | Plant response rating, Crabgrass, Large (crabgrass, large; [3]) | Plant response rating, Crabgrass, Large (crabgrass, large; [4]) | Crabgrass, Large plant response rating (crabgrass, large; [5]) | Plant response rating, Crabgrass, Large (crabgrass, large; [6])
75: Plant response rating, Sedge, Umbrella (sedge, umbrella; 250 g ai/ha)
50: Plant response rating, Rice (rice; 250 g ai/ha) | Plant response rating, Barnyardgrass (barnyardgrass [1]; 250 g ai/ha)

Reference: patent publication US10294202B2, “Pyrrolidinones as herbicides” (FMC Corporation, priority 2013, dated 2019)
